{
  "source": "patent US20210309631A1",
  "about": "“SALT OF CYCLOHEXANE DERIVATIVE” (priority 2018, published 2021)",
  "key": {"[1]": {"experiment": "In vivo individual difference analysis: individual plasma concentration versus time in rats (Example 8)", "parameters": "species or system SD rats", "conditions": "intragastric 1 mg/kg, listed as Sulfate of Compound of Formula I", "experimental": "Compound of Formula I and salts thereof (sulfate, hydrochloride salt, phosphate, maleate), supplied by Shanghai Jingxin Biopharmaceutical Co., Ltd. • Strain: SD rats; Gender: male; Body weight: about 250 grams; Source: shanghai Jiesijie Experimental Animal Co., Ltd Route: single intragastric administration; Capacity: measured in 10 mL/kg body weight Preparation: weighing appropriate amount of the free base or salt of the compound of Formula I, adding a small amount of 0.5% CMC-Na to grind, adding 0.5% CMC-Na to the volume. The concentration is measured as the base. 20 SD rats were divided into 5 groups with 4 rats in each group, fasted for 12 h and drank freely before administration. […] The blood was anticoagulated with 1% heparin, the plasma was separated by 8000 rpm centrifugation for 4 min and stored at -40° C. for testing. LC-MS/MS Method. Pharmacokinetic parameters after administration in rats were calculated using a non-compartmental model of DAS 2.0 software."}, "solubility in water": {"experiment": "solubility in water", "type": "physicochemical", "conditions": "listed as sulfate Form A"}, "[2]": {"experiment": "Hygroscopicity (DVS) experiment, 25° C./80% relative humidity", "type": "physicochemical", "experimental": "Dynamic vapor sorption curves were collected on a DVS Intrinsic by SMS (Surface Measurement Systems).\n20 mg sample of the crystal forms of the Examples and Comparative Examples are placed in the environment of 25° C./80% relative humidity for a dynamic vapor sorption (DVS) test, and the test results […] are shown in Table 5."}, "[3]": {"experiment": "Plasma pharmacokinetics in SD rats after single intragastric administration (Example 7)", "type": "in vivo", "conditions": "intragastric 1 mg/kg, Mean ± SD, non-compartmental model, listed as Sulfate", "experimental": "The in vivo absorption process and characteristics of the free base and four salts thereof (sulfate, hydrochloride salt, phosphate, maleate) of compound (I) in rats were studied. The pharmacokinetics of a single intragastric administration of 1 mg/kg of a compound of Formula I and four salts thereof (calculated by free base concentration in salt form) were studied in SD rats.\nSD rats were given a single intragastric administration of 1 mg/kg free base of Example 1 and four salts thereof (including hydrochloride salt from Example 2, sulfate from Example 3, phosphate from Example 4 and maleate from Example 5). There were 4 male rats in each group. The concentration of the compound of Formula I in plasma was determined, and the pharmacokinetic parameters were calculated according to the concentration-time curve."}, "[4]": {"conditions": "DVS, 25° C./80% relative humidity, listed as Example 3 sulfate"}},
  "data": [
    {"compound": "CN(C)C(=O)N[C@H]1CC[C@H](CCN2CCN(c3cccc4ccsc34)CC2)CC1", "note": "[Example 3, N′-[trans-4-[2-[7-(benzo[b]thiophene)-7-piperazinyl]ethyl]cyclohexyl]-N,N-dimethylurea]", "values": [
      {"measurement": "Plasma Concentrations of Compound of Formula I", "setting": "[1]; 5 min after administration, Mean ± SD", "result": "2.25 ± 0.476", "unit": "ng/mL"},
      {"measurement": "Plasma Concentrations of Compound of Formula I", "setting": "[1]; 5 min after administration, rat 1♂", "result": 1.54, "unit": "ng/mL"},
      {"measurement": "Plasma Concentrations of Compound of Formula I", "setting": "[1]; 5 min after administration, rat 2♂", "result": 2.41, "unit": "ng/mL"},
      {"measurement": "Plasma Concentrations of Compound of Formula I", "setting": "[1]; 5 min after administration, rat 3♂", "result": 2.56, "unit": "ng/mL"},
      {"measurement": "Plasma Concentrations of Compound of Formula I", "setting": "[1]; 5 min after administration, rat 4♂", "result": 2.48, "unit": "ng/mL"},
      {"measurement": "Plasma Concentrations of Compound of Formula I", "setting": "[1]; 0.167 h after administration, Mean ± SD", "result": "21.7 ± 2.45", "unit": "ng/mL"},
      {"measurement": "Plasma Concentrations of Compound of Formula I", "setting": "[1]; 0.167 h after administration, rat 1♂", "result": 24.0, "unit": "ng/mL"},
      {"measurement": "Plasma Concentrations of Compound of Formula I", "setting": "[1]; 0.167 h after administration, rat 2♂", "result": 18.4, "unit": "ng/mL"},
      {"measurement": "Plasma Concentrations of Compound of Formula I", "setting": "[1]; 0.167 h after administration, rat 3♂", "result": 23.0, "unit": "ng/mL"},
      {"measurement": "Plasma Concentrations of Compound of Formula I", "setting": "[1]; 0.167 h after administration, rat 4♂", "result": 21.3, "unit": "ng/mL"},
      {"measurement": "Plasma Concentrations of Compound of Formula I", "setting": "[1]; 0.333 h after administration, Mean ± SD", "result": "51.2 ± 2.32", "unit": "ng/mL"},
      {"measurement": "Plasma Concentrations of Compound of Formula I", "setting": "[1]; 0.333 h after administration, rat 1♂", "result": 50.4, "unit": "ng/mL"},
      {"measurement": "Plasma Concentrations of Compound of Formula I", "setting": "[1]; 0.333 h after administration, rat 2♂", "result": 54.4, "unit": "ng/mL"},
      {"measurement": "Plasma Concentrations of Compound of Formula I", "setting": "[1]; 0.333 h after administration, rat 3♂", "result": 51.0, "unit": "ng/mL"},
      {"measurement": "Plasma Concentrations of Compound of Formula I", "setting": "[1]; 0.333 h after administration, rat 4♂", "result": 48.9, "unit": "ng/mL"},
      {"measurement": "Plasma Concentrations of Compound of Formula I", "setting": "[1]; 0.5 h after administration, Mean ± SD", "result": "49.9 ± 10.4", "unit": "ng/mL"},
      {"measurement": "Plasma Concentrations of Compound of Formula I", "setting": "[1]; 0.5 h after administration, rat 1♂", "result": 56.0, "unit": "ng/mL"},
      {"measurement": "Plasma Concentrations of Compound of Formula I", "setting": "[1]; 0.5 h after administration, rat 2♂", "result": 36.0, "unit": "ng/mL"},
      {"measurement": "Plasma Concentrations of Compound of Formula I", "setting": "[1]; 0.5 h after administration, rat 3♂", "result": 48.0, "unit": "ng/mL"},
      {"measurement": "Plasma Concentrations of Compound of Formula I", "setting": "[1]; 0.5 h after administration, rat 4♂", "result": 59.4, "unit": "ng/mL"},
      {"measurement": "Plasma Concentrations of Compound of Formula I", "setting": "[1]; 1 h after administration, Mean ± SD", "result": "39.2 ± 6.84", "unit": "ng/mL"},
      {"measurement": "Plasma Concentrations of Compound of Formula I", "setting": "[1]; 1 h after administration, rat 1♂", "result": 42.6, "unit": "ng/mL"},
      {"measurement": "Plasma Concentrations of Compound of Formula I", "setting": "[1]; 1 h after administration, rat 2♂", "result": 30.0, "unit": "ng/mL"},
      {"measurement": "Plasma Concentrations of Compound of Formula I", "setting": "[1]; 1 h after administration, rat 3♂", "result": 38.5, "unit": "ng/mL"},
      {"measurement": "Plasma Concentrations of Compound of Formula I", "setting": "[1]; 1 h after administration, rat 4♂", "result": 45.8, "unit": "ng/mL"},
      {"measurement": "Plasma Concentrations of Compound of Formula I", "setting": "[1]; 2 h after administration, Mean ± SD", "result": "23.2 ± 7.54", "unit": "ng/mL"},
      {"measurement": "Plasma Concentrations of Compound of Formula I", "setting": "[1]; 2 h after administration, rat 1♂", "result": 32.7, "unit": "ng/mL"},
      {"measurement": "Plasma Concentrations of Compound of Formula I", "setting": "[1]; 2 h after administration, rat 2♂", "result": 14.5, "unit": "ng/mL"},
      {"measurement": "Plasma Concentrations of Compound of Formula I", "setting": "[1]; 2 h after administration, rat 3♂", "result": 24.1, "unit": "ng/mL"},
      {"measurement": "Plasma Concentrations of Compound of Formula I", "setting": "[1]; 2 h after administration, rat 4♂", "result": 21.3, "unit": "ng/mL"},
      {"measurement": "Plasma Concentrations of Compound of Formula I", "setting": "[1]; 4 h after administration, Mean ± SD", "result": "7.92 ± 3.01", "unit": "ng/mL"},
      {"measurement": "Plasma Concentrations of Compound of Formula I", "setting": "[1]; 4 h after administration, rat 1♂", "result": 10.3, "unit": "ng/mL"},
      {"measurement": "Plasma Concentrations of Compound of Formula I", "setting": "[1]; 4 h after administration, rat 2♂", "result": 4.31, "unit": "ng/mL"},
      {"measurement": "Plasma Concentrations of Compound of Formula I", "setting": "[1]; 4 h after administration, rat 3♂", "result": 10.5, "unit": "ng/mL"},
      {"measurement": "Plasma Concentrations of Compound of Formula I", "setting": "[1]; 4 h after administration, rat 4♂", "result": 6.57, "unit": "ng/mL"},
      {"measurement": "Plasma Concentrations of Compound of Formula I", "setting": "[1]; 6 h after administration, Mean ± SD", "result": "2.87 ± 1.10", "unit": "ng/mL"},
      {"measurement": "Plasma Concentrations of Compound of Formula I", "setting": "[1]; 6 h after administration, rat 1♂", "result": 3.08, "unit": "ng/mL"},
      {"measurement": "Plasma Concentrations of Compound of Formula I", "setting": "[1]; 6 h after administration, rat 2♂", "result": 1.35, "unit": "ng/mL"},
      {"measurement": "Plasma Concentrations of Compound of Formula I", "setting": "[1]; 6 h after administration, rat 3♂", "result": 3.99, "unit": "ng/mL"},
      {"measurement": "Plasma Concentrations of Compound of Formula I", "setting": "[1]; 6 h after administration, rat 4♂", "result": 3.05, "unit": "ng/mL"},
      {"measurement": "Plasma Concentrations of Compound of Formula I", "setting": "[1]; 9 h after administration, Mean ± SD", "result": "1.15 ± 0.444", "unit": "ng/mL"},
      {"measurement": "Plasma Concentrations of Compound of Formula I", "setting": "[1]; 9 h after administration, rat 1♂", "result": 1.30, "unit": "ng/mL"},
      {"measurement": "Plasma Concentrations of Compound of Formula I", "setting": "[1]; 9 h after administration, rat 2♂", "result": 0.643, "unit": "ng/mL"},
      {"measurement": "Plasma Concentrations of Compound of Formula I", "setting": "[1]; 9 h after administration, rat 3♂", "result": 1.68, "unit": "ng/mL"},
      {"measurement": "Plasma Concentrations of Compound of Formula I", "setting": "[1]; 9 h after administration, rat 4♂", "result": 0.973, "unit": "ng/mL"},
      {"measurement": "Plasma Concentrations of Compound of Formula I", "setting": "[1]; 12 h after administration, Mean ± SD", "result": "0.606 ± 0.221", "unit": "ng/mL"},
      {"measurement": "Plasma Concentrations of Compound of Formula I", "setting": "[1]; 12 h after administration, rat 1♂", "result": 0.718, "unit": "ng/mL"},
      {"measurement": "Plasma Concentrations of Compound of Formula I", "setting": "[1]; 12 h after administration, rat 2♂", "result": 0.317, "unit": "ng/mL"},
      {"measurement": "Plasma Concentrations of Compound of Formula I", "setting": "[1]; 12 h after administration, rat 3♂", "result": 0.827, "unit": "ng/mL"},
      {"measurement": "Plasma Concentrations of Compound of Formula I", "setting": "[1]; 12 h after administration, rat 4♂", "result": 0.561, "unit": "ng/mL"},
      {"measurement": "Plasma Concentrations of Compound of Formula I", "setting": "[1]; 24 h after administration, Mean ± SD", "result": "0.244 ± 0.161", "unit": "ng/mL"},
      {"measurement": "Plasma Concentrations of Compound of Formula I", "setting": "[1]; 24 h after administration, rat 1♂", "result": 0.213, "unit": "ng/mL"},
      {"measurement": "Plasma Concentrations of Compound of Formula I", "setting": "[1]; 24 h after administration, rat 2♂", "result": 0.135, "unit": "ng/mL"},
      {"measurement": "Plasma Concentrations of Compound of Formula I", "setting": "[1]; 24 h after administration, rat 3♂", "result": 0.148, "unit": "ng/mL"},
      {"measurement": "Plasma Concentrations of Compound of Formula I", "setting": "[1]; 24 h after administration, rat 4♂", "result": 0.479, "unit": "ng/mL"},
      {"measurement": "solubility in water", "setting": "solubility in water", "result": "greater than 8.0 mg/ml"},
      {"measurement": "Hygroscopicity", "setting": "[2]; [4]", "result": "Slight"},
      {"measurement": "Vapor sorption", "setting": "[2]; [4]", "result": 0.23, "unit": "%"},
      {"measurement": "The crystal form changes after DVS testing or not", "setting": "[2]; after DVS testing", "result": "No"},
      {"measurement": "MRT0-∞", "setting": "[3]", "result": "2.87 ± 0.283", "unit": "h"},
      {"measurement": "Tmax", "setting": "[3]", "result": "0.417 ± 0.096", "unit": "h"},
      {"measurement": "t1/2", "setting": "[3]", "result": "2.67 ± 0.267", "unit": "h"}
    ]}
  ]
}
